# Experimental data: paper PMC4753534 (Journal of Medicinal Chemistry, 2015)
# Where two headings read alike, the source gives them in different places.
# Experiments:
# [1] = system: HCV-Luc (HCV JFH-1 strain, genotype 2a); assay: microbe, parasite or virus in culture; format: cell-based; details: Hepatitis C virus, GETYPE2A, values in nM
# [2] = mouse, i.p., 24 h, previously reported, cited from earlier work
# [3] = molecular target: H1-histamine receptor (H1HR) (Homo sapiens, UniProt P35367); assay: H1HR inhibition assay; format: cell-based; details: read-out: H1HR inhibition
# [4] = system: hepatitis B virus, HCV replicon, herpes simplex virus-1, human cytomegalovirus, vaccinia virus, dengue virus, influenza A (H1N1) virus, respiratory syncytial …; format: cell-based
# Sequence of H1-histamine receptor (H1HR) (P35367 whole entry): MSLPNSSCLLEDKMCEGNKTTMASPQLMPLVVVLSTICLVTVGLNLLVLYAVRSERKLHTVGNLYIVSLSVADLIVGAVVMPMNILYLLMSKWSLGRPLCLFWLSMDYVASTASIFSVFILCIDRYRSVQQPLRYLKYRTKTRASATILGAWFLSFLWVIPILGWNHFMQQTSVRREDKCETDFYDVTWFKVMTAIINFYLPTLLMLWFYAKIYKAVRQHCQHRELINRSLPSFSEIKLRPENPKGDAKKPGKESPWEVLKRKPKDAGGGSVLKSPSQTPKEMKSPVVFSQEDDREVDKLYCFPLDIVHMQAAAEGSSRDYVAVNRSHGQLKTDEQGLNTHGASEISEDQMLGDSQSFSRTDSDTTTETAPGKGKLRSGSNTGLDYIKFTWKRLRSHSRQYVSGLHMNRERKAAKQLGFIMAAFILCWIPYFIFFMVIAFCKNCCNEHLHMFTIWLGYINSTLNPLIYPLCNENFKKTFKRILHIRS
structure (smiles),measurement,setting,value
"NCCOCCN1CCN(C(c2ccccc2)c2ccc(Cl)cc2)CC1 (racemic) [Rac-23, 2-(2-(4-((4-Chlorophenyl) (Phenyl)methyl)piperazin-1-yl)ethoxy)ethanamine]",EC50,[1],< 8 nM
Clc1ccc([C@H](c2ccccc2)N2CCNCC2)cc1 [(S)-1],T1/2 Liver,[2]; 10 mg/kg,4.7 h
same,inhibition at 0.01 µM,[3],~10%
"CN1CCN([C@@H](c2ccccc2)c2ccc(Cl)cc2)CC1 [(S)-2, reference compound]",T1/2 Liver,[2]; 50 mg/kg,1.99 h
"CCN1CCN([C@@H](c2ccccc2)c2ccc(Cl)cc2)CC1 [(S)-10, (S)-1-((4-Chlorophenyl) (phenyl)methyl)-4-ethylpiperazine]",antiviral activity in the NIAID antiviral screen,[4],Little or no antiviral activity was detected
"CN1CCN(C(c2ccc(Cl)cc2)c2ccc(Cl)cc2)CC1 [Compound 30, 1-(Bis(4-chlorophenyl)methyl)-4-methylpiperazine]",ALT levels,"Alanine transaminase; mouse serum, 10 mg/kg i.p., most time points except t = 2 and 4 h",≤ 80 U/L
same,hepatotoxicity,"Alanine transaminase; mouse, single 10 mg/kg i.p., ALT also elevated with vehicle only",no clear hepatotoxicity was detected
